Test results published in US12552767B2, “3-heteroaryl pyrrolidine and piperidine orexin receptor agonists” (Merck Sharp & Dohme LLC, priority 2020, dated 2026).

Molecular target: T1, human OX2R (Homo sapiens, UniProt O43614)
T1 construct: expressed in transfected cells; host or cells: CHO (Chinese hamster ovary) cells, grown under G418 selection
T1 sequence (O43614 1-444): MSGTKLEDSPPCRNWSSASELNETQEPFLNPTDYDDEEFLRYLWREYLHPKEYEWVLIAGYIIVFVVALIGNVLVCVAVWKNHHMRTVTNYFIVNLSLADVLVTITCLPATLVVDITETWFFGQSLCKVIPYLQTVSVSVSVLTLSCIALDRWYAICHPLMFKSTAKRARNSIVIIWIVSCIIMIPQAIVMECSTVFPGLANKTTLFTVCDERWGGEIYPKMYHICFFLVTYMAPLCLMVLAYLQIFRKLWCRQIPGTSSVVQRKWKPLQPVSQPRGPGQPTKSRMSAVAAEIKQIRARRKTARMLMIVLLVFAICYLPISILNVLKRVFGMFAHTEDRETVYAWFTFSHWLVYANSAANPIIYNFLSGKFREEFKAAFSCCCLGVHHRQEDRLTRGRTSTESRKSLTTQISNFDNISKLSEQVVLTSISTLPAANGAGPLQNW
Assay: IP-One (IPOne) orexin receptor agonist assay in CHO cells expressing human OX2R
Type: cell-based
Conditions: for EC50: CHO cells expressing human OX2R, IP-One IP-1 detection, 2 hours incubation, four parameter logistic fit, read-out: OX2R Potency, EC50; for % of reference agonist maximal effect: human OX2R, percentage of sample raw value/mean max effect (reference compound at 1 uM with 100% activity)
Text: The utility of the compounds in accordance with the present invention as orexin receptor OX1R and/or OX2R agonists may be readily determined without undue experimentation by methodology well known in the art. Both the OX1R and/or OX2R G-coupled protein receptors (GPCRs) couple through the Gαq signaling pathway, which ultimately promotes calcium mobilization via inositol triphosphate (IP3) production. The half-life of IP-3 is relatively short, being rapidly metabolized to inositol monophosphate (IP-1), which can be readily detected using a commercially available assay kit (IP-One; Cisbio; cat #621PAPEC) coupled with a cell line expressing the target receptor(s) of interest. The utility of the compounds in accordance with the present invention as orexin receptor OX1R and/or OX2R agonists may be determined utilizing this assay.
In a typical experiment, the OX1 and OX2 receptor agonist activity is determined in accordance with the following general experimental method. Chinese hamster ovary (CHO) cells expressing human OX1R and/or the human OX2R were grown in Iscove's modified DMEM containing glutaMAX™, 1% G418, 100 U/mL penicillin, 100 μg/mL streptomycin and 10% heat-inactivated qualified fetal bovine serum (FBS). The OX2R cells were seeded at 10,000 cells/well/50 μL and the OX1R cells were seeded at 20,000 cells/well/50 μL into 384-well white tissue culture plates (Greiner; cat #781080). All cell/media reagents were from GIBCO-Invitrogen Corp. The seeded cell plate(s) were incubated at 37° C. with 5% CO2 and 85% humidity for 20-24 hours. On the day of the assay, assay-ready compound plates were prepared using an acoustic liquid handler (ECHO; Labcyte), which dispensed sufficient volume of test compound stock (10 mM in DMSO) or 100% DMSO to prepare 10 point, ½-log dilutions in a final volume of 202.5 nL/well in all test wells of a 384-well diamond plate (Labcyte). Following completion of assay-ready plates, importantly, the next three steps were performed with minimal delay: 1) 20 μl of 1× stimulation buffer was added to the compound plate using a Multidrop Combi (small cassette, Thermo Fisher Scientific cat #24073290); 2) culture medium was removed from the cell plate using the Bluewasher plate washer (gentle spin; BlueCatBio); 3) 14 μl of compound/stimulation buffer mixture was added to the cell plate using a Bravo liquid handler (Agilent) prior to incubating cell plates at 37° C. with 5% CO2 and 85% humidity for 1 or 2 hours (OX1R and OX2R, respectively). During this incubation, IP-one detection reagents were prepared (38:1:1 lysis buffer:D2:AB-cryptate reagents). Six μL of mixed detection reagents were added to the cell plate using a Multidrop Combi (small cassette, Thermo Fisher Scientific cat #24073290) and incubated 60 minutes at room temperature in the dark. Fluorescence signal was detected using an Envision plate reader (Perkin Elmer) [LANCE/DELFIA Dual Enh (Em: APC 665; Ex: Cy5 620)].
For each compound, data were fit to a four parameter logistic fit (ActivityBase software) and the EC50 was reported as the inflection point of the resulting curve. Percent effect for each test compound was determined as the percentage of sample raw value/mean max effect, where the mean max effect was derived from the mean raw value of 32 control wells per assay plate (using Orexin A (cat #003-30) at 1 μM for human OX1R and a reference compound at 1 uM with 100% activity previously established by comparison to Orexin A for human OX2R). The intrinsic orexin receptor agonist activity of a compound which may be used in the present invention may be determined by these assays.

SMILES	EC50	% of reference agonist maximal effect
COC(=O)N1CCC[C@H](c2cccc(O)n2)[C@@H]1CO[C@H]1CC[C@@H](c2ccccc2)CC1 (relative stereo) [Example 64, Methyl (CIS)-3-(6-hydroxypyridin-2-yl)-2-((((CIS)-4-phenylcyclohexyl)oxy)methyl)piperidine-1-carboxylate]	3.06 µM	68.1%
COC(=O)N1CCC[C@@H](c2csc(O)n2)[C@H]1CO[C@H]1CC[C@@H](c2ccccc2)CC1 (relative stereo) [Example 65]	0.174 µM	98.1%
COC(=O)N1CCC[C@H](c2nc(O)ccc2C)[C@@H]1CO[C@H]1CC[C@@H](c2ccccc2)CC1 (relative stereo) [Example 66, methyl (CIS)-3-(6-hydroxy-3-methylpyridin-2-yl)-2-((((CIS)-4-phenylcyclohexyl)oxy)methyl)piperidine-1-carboxylate]	0.808 µM	98.8%
C[C@@H]1C[C@H]1C(=O)N1CCC[C@H](c2cc[nH]n2)[C@@H]1CO[C@H]1CC[C@@H](c2ccccc2)CC1 (relative stereo) [Example 70, ((TRANS)-2-methylcyclopropyl)((CIS)-2-((((CIS)-4-phenylcyclohexyl)oxy)methyl)-3-(1H-pyrazol-3-yl)piperidin-1-yl)methanone]	0.292 µM	100.0%
CC(C)C(=O)N1CCC[C@H](c2cc[nH]n2)[C@@H]1CO[C@H]1CC[C@@H](C(C)C)CC1 (relative stereo) [Example 73, 1-((CIS)-2-((((CIS)-4-isopropylcyclohexyl)oxy)methyl)-3-(1H-pyrazol-3-yl)piperidin-1-yl)-2-methylpropan-1-one]	3.22 µM	79.3%
O=C(CC1COC1)N1CCC[C@H](c2cc[nH]n2)[C@@H]1CO[C@H]1CC[C@@H](c2ccccc2)CC1 (relative stereo) [Example 74, 2-(oxetan-3-yl)-1-((CIS)-2-((((CIS)-4-phenylcyclohexyl)oxy)methyl)-3-(1H-pyrazol-3-yl)piperidin-1-yl)ethan-1-one]	3.28 µM	94.3%
CC(C)[C@H]1CC[C@@H](OC[C@H]2[C@@H](c3cc[nH]n3)CCCN2C(=O)C2CC2)CC1 (relative stereo) [Example 75, cyclopropyl((CIS)-2-((((CIS)-4-isopropylcyclohexyl)oxy)methyl)-3-(1H-pyrazol-3-yl)piperidin-1-yl)methanone]	3.63 µM	95.7%
CC1CC1C(=O)N1CCC[C@H](c2cc[nH]n2)[C@@H]1CO[C@H]1CC[C@@H](C(C)C)CC1 (relative stereo) [Example 76, ((CIS)-2-((((CIS)-4-isopropylcyclohexyl)oxy)methyl)-3-(1H-pyrazol-3-yl)piperidin-1-yl)(2-methylcyclopropyl)methanone]	4.13 µM	94.6%
CC(C)(O)C(=O)N1CCC[C@H](c2cc[nH]n2)[C@@H]1CO[C@H]1CC[C@@H](c2ccccc2)CC1 (relative stereo) [Example 77, 2-hydroxy-2-methyl-1-((CIS)-2-((((CIS)-4-phenylcyclohexyl)oxy)methyl)-3-(1H-pyrazol-3-yl)piperidin-1-yl)propan-1-one]	4.34 µM	96.1%
O=C(N1CCC[C@H](c2cc[nH]n2)[C@@H]1CO[C@H]1CC[C@@H](c2ccccc2)CC1)C1(O)CC1 (relative stereo) [Example 78, (1-hydroxycyclopropyl)((CIS)-2-((((CIS)-4-phenylcyclohexyl)oxy)methyl)-3-(1H-pyrazol-3-yl)piperidin-1-yl)methanone]	4.43 µM	92.6%
CC(C)[C@H]1CC[C@@H](OC[C@H]2[C@@H](c3cc[nH]n3)CCCN2C(=O)C2CCC2)CC1 (relative stereo) [Example 79, cyclobutyl((CIS)-2-((((CIS)-4-isopropylcyclohexyl)oxy)methyl)-3-(1H-pyrazol-3-yl)piperidin-1-yl)methanone]	5.31 µM	83.2%
